Test [1] deals with T1, Serine/threonine-protein kinase 26 (Homo sapiens, UniProt Q9P289). The test can be described thus: Inhibition of MST4 (unknown origin) expressed in HEK293T cells using NanoGlo as substrate incubated for 20 hrs by NanoBRET assay. Format: cell-based. A general note: In BRET a luciferase serves as donor, and the signal depends on an acceptor being close.
Target sequence in this assay (Q9P289 whole entry): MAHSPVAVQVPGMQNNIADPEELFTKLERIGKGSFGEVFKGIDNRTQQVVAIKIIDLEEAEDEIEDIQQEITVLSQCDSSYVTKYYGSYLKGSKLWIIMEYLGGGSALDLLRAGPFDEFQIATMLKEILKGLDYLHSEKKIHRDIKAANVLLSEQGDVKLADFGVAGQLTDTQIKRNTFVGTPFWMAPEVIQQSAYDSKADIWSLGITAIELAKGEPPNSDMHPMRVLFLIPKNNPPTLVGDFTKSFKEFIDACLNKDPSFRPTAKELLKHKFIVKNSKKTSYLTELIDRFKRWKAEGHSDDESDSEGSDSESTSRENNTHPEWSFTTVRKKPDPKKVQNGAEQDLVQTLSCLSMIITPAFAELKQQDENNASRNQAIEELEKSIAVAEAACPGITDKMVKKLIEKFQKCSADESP
For test [2], the target named is T2, Serine/threonine-protein kinase 4 (Homo sapiens) (UniProt Q13043).
T2 sequence (whole entry): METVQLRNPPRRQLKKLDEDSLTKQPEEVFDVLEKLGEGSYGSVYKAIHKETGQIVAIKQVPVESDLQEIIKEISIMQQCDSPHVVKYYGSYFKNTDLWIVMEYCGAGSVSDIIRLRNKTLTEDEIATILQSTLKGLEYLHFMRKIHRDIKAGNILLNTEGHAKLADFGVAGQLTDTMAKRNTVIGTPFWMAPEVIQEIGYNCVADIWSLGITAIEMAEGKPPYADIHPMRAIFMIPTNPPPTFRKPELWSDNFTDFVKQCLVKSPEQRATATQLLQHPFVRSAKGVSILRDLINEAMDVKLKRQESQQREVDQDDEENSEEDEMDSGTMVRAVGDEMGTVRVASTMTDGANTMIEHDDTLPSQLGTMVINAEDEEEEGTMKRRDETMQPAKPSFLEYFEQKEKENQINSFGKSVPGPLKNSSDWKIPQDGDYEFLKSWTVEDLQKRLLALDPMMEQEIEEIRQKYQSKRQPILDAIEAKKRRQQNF
The test can be described thus: Binding affinity to recombinant MST1 (unknown origin) assessed as change in melting temperature by DSF analysis. Background: In DSF a fluorescence change marks the thermal transition of the protein.

For test [3], the target named is T3, Serine/threonine-protein kinase 4 (Homo sapiens, UniProt Q13043).
T3 sequence (Q13043 whole entry): T2 sequence (whole entry)
Nature of the test: Inhibition of MST1 (unknown origin) expressed in HEK293T cells using NanoGlo as substrate incubated for 20 hrs by NanoBRET assay. Format: cell-based.

In test [4] the target is T4, Serine/threonine-protein kinase 24 (Homo sapiens, UniProt Q9Y6E0). Nature of the test: Inhibition of MST3 (unknown origin) expressed in HEK293T cells using NanoGlo as substrate incubated for 20 hrs by NanoBRET assay. The format is cell-based.
Target sequence in this assay (Q9Y6E0 whole entry): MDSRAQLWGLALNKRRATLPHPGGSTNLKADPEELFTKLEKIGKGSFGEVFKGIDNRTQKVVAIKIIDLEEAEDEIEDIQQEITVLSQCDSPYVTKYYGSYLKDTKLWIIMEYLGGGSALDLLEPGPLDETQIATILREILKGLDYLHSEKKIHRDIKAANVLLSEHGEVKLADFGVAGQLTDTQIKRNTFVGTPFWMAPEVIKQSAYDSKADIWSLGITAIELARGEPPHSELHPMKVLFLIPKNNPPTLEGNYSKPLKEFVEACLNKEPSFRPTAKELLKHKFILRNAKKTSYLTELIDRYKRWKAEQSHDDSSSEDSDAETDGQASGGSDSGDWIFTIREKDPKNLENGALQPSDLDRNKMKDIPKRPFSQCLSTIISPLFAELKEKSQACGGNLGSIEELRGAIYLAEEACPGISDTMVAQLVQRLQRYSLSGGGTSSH
The target of test [5] is T4, Serine/threonine-protein kinase 24. Nature of the test: Binding affinity to recombinant MST3 (unknown origin) assessed as change in melting temperature by DSF analysis.
Target sequence in this assay (Q9Y6E0 whole entry, looked up): as the sequence (Q9Y6E0 whole entry) above
Test [6] concerns the target Serine/threonine-protein kinase PAK 1 (Homo sapiens) (UniProt Q13153). The test can be described thus: Binding affinity to recombinant PAK1 (unknown origin) assessed as change in melting temperature by DSF analysis.
Test [7] concerns the target Serine/threonine-protein kinase SIK2 (Homo sapiens, UniProt Q9H0K1). The test can be described thus: Inhibition of SIK2 (unknown origin) expressed in HEK293T cells using NanoGlo as substrate incubated for 20 hrs by NanoBRET assay. Format: cell-based.
Test [8] deals with T5, Serine/threonine-protein kinase 3 (Homo sapiens, UniProt Q13188).
T5 sequence (Q13188 whole entry): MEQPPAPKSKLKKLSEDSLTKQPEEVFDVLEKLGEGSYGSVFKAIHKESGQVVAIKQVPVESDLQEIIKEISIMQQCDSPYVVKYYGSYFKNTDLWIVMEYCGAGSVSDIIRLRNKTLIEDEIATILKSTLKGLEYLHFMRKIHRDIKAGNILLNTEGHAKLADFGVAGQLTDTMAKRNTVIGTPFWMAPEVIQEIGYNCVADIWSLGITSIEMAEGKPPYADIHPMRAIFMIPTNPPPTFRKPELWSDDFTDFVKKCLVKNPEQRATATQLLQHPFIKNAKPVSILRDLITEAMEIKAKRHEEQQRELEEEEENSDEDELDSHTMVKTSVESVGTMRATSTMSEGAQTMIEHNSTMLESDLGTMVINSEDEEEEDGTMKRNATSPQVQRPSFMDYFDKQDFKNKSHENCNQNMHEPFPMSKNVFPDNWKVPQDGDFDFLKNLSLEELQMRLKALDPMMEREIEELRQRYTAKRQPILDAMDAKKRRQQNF
The test can be described thus: Inhibition of MST2 (unknown origin) expressed in HEK293T cells using NanoGlo as substrate incubated for 20 hrs by NanoBRET assay. The format is cell-based.

Test [9] addresses T6, Serine/threonine-protein kinase 3 (Homo sapiens) (UniProt Q13188).
T6 sequence (whole entry): T5 sequence (Q13188 whole entry)
The test can be described thus: Binding affinity to recombinant MST2 (unknown origin) assessed as change in melting temperature by DSF analysis.

Test [10] has as its target T1, Serine/threonine-protein kinase 26. Nature of the test: Binding affinity to recombinant MST4 (unknown origin) assessed as change in melting temperature by DSF analysis.
Target sequence in this assay (Q9P289 2-416 limits assumed): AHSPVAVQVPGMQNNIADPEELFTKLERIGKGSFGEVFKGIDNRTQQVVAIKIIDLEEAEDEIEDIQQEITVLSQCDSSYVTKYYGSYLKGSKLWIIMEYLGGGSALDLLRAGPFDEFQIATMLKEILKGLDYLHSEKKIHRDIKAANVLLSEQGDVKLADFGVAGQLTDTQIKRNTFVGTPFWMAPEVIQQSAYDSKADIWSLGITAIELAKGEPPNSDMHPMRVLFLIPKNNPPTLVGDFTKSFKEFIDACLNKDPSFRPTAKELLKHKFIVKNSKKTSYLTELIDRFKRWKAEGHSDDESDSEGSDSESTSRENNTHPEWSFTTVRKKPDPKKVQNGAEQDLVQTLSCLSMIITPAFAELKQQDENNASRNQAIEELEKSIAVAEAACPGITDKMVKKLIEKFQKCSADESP
Test [11] addresses T4, Serine/threonine-protein kinase 24. Nature of the test: Inhibition of MST3 (unknown origin) expressed in lysed HEK293T cells using NanoGlo as substrate incubated for 20 hrs by NanoBRET assay. The format is cell-based.
Target sequence in this assay (Q9Y6E0 whole entry): as the sequence (Q9Y6E0 whole entry) above

Sequence of Serine/threonine-protein kinase PAK 1 (Homo sapiens) (Q13153 whole entry): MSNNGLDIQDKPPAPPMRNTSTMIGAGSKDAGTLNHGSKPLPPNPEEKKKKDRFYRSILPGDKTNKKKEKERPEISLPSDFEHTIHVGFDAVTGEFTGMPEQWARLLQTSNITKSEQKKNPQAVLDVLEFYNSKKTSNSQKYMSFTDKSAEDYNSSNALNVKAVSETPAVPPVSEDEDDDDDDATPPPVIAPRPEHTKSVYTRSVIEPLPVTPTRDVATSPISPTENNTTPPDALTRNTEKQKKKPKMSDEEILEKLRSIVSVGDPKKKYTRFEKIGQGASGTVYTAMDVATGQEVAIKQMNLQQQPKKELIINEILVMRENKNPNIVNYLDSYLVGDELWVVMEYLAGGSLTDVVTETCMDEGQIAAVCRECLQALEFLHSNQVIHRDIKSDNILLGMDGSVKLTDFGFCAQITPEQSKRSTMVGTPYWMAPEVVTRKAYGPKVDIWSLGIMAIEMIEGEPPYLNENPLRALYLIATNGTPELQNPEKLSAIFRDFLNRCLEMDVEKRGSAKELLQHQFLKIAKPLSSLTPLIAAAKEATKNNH
Sequence of Serine/threonine-protein kinase SIK2 (Q9H0K1 whole entry): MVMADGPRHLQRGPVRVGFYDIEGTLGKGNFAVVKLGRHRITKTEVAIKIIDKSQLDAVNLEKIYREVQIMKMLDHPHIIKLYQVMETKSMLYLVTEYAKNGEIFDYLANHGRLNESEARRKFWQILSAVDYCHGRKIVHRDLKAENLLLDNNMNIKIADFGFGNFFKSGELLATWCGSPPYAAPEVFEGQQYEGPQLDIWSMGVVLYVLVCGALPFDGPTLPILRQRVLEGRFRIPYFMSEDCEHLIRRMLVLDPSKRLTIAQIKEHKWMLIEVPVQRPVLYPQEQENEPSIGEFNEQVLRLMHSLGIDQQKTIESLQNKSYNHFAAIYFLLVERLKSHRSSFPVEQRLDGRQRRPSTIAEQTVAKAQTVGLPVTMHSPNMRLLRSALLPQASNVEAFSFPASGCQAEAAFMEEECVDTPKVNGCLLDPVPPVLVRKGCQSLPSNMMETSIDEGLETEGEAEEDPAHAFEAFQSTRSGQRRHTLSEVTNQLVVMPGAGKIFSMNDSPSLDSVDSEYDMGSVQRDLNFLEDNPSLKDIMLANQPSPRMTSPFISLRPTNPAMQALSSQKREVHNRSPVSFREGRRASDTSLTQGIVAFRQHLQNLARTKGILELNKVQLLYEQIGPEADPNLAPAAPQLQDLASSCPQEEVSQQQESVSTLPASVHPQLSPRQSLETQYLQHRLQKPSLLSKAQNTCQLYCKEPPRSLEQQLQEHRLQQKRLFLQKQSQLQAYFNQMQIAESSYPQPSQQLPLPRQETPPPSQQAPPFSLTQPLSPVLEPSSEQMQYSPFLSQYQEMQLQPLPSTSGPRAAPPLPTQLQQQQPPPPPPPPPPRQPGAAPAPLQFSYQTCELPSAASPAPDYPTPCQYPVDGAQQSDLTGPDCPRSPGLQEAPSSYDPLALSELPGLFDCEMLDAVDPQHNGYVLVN

In general, EC50 refers to the concentration giving half of the maximal effect. A lower EC50 goes with greater potency. By ΔTm is commonly meant the shift of the melting midpoint relative to a reference. Turning to `CNc1ncc2cc(-c3ccc(-c4cccc(C)n4)cc3Cl)c(=O)n(CCOC)c2n1`, the EC50 in [1] was 13000 nM; in test [3] it was 31400 nM; in test [4], 420 nM; in test [7] it was 2500 nM; in [8] it was 28500 nM. In addition, the ΔTm in test [2] was 3.9 °C; in test [5], 6.7 °C; in test [6], 4.1 °C; in test [9], 5 °C; in [10], 4.4 °C.

Regarding `CNc1ncc2cc(-c3ccc(-c4cccc(C)n4)cc3Cl)c(=O)n(CCCOC)c2n1`, the EC50 is 7600 nM in test [1]; 9200 nM in test [3]; 594 nM in test [4]; 1700 nM in [7]; 9300 nM in [8]. Besides, the ΔTm in [2] amounted to 3.6 °C; in test [5], 5.1 °C; in [6], 5.1 °C; in test [9], 6.2 °C; in [10], 4.1 °C.

As to `CNc1ncc2cc(-c3ccc(-c4cccc(C)n4)cc3Cl)c(=O)n(CCCO)c2n1`, the EC50 in [1] was 4500 nM; in [3], 6700 nM; in test [4] it was 382 nM; in [7], 505 nM; in test [8], 6000 nM. Further, the ΔTm in test [2] is 3.4 °C; in test [5], 6.2 °C; in test [6], 4.5 °C; in [9] it was 6.3 °C; in test [10], 5 °C.

Consider `CNc1ncc2cc(-c3ccc(-c4cccc(C)n4)cc3Cl)c(=O)n(CCCCCO)c2n1`, for which the EC50 is 2200 nM in test [1]; 3000 nM in [3]; 316 nM in [4]; 266 nM in test [7]; 2800 nM in [8]. Further, the ΔTm in test [2] was found to be 2.4 °C; in [5], 6.6 °C; in test [6], 6 °C; in test [9] it was 6.1 °C; in [10] it was 5.5 °C.

Regarding `CNc1ncc2cc(-c3ccc(-c4cccc(C)n4)cc3Cl)c(=O)n(C[C@H]3CC[C@H](N)CC3)c2n1`, the EC50 in test [1] was determined as 500 nM; in test [3], 660 nM; in test [4] it was 48 nM; in test [7], 16 nM; in [8] it was 552 nM. The ΔTm in [2] came to 7.9 °C; in test [5], 10.8 °C; in test [6], 8.4 °C; in test [9] it was 10.8 °C; in [10] it was 8.2 °C.

In the case of `CNc1ncc2cc(-c3ccc(-c4cccc(C)n4)cc3Cl)c(=O)n(CCCCOC)c2n1`, the EC50 in [1] was found to be 5500 nM; in test [3] it was 5300 nM; in test [4], 614 nM; in test [7] it was 1300 nM; in [8], 4600 nM. Further, the ΔTm in [2] was found to be 3.3 °C; in test [5] it was 6.2 °C; in [6], 4.8 °C; in [9], 8.6 °C; in test [10] it was 3.6 °C.

As for `CNc1ncc2cc(-c3ccc(-c4cccc(C)n4)cc3Cl)c(=O)n(C[C@H]3OC[C@H](N)CO3)c2n1`, the EC50 worked out at 30400 nM in test [3] and 4600 nM in test [8].

In the case of `Cc1cccc(-c2ccc(-c3cc4cnc(NCCCN5CCNCC5)nc4n(CCCCN)c3=O)c(Cl)c2)n1`, the EC50 in [1] is 2800 nM; in test [11], 33 nM; in [3], more than 50000 nM; in test [7] it was 5900 nM; in [8] it was more than 50000 nM. In addition, the ΔTm in test [2] is 3.1 °C; in test [5], 13 °C; in [6], 5 °C; in [9], 15.8 °C; in test [10] it was 8.9 °C.

Take `Cc1cccc(-c2ccc(-c3cc4cnc(Nc5ccc(O)cc5)nc4n(CCCCN)c3=O)c(Cl)c2)n1`: the EC50 is 44 nM in test [1]; 23 nM in [11]; 419 nM in test [3]; 62 nM in test [7]; 369 nM in test [8]. In addition, the ΔTm in test [2] turned out to be 8 °C; in test [5], 17.1 °C; in test [6] it was 9.2 °C; in [9] it was 13.7 °C; in [10], 15 °C.

As for `CNc1ncc2cc(-c3ccc(-c4cccc(C)n4)cc3Cl)c(=O)[nH]c2n1`, the ΔTm in [2] is 0 °C; in test [5], 0.6 °C; in test [6], 0 °C; in test [9], 0.3 °C; in test [10], 0 °C. For the same compound, the EC50 in test [7] stood at 1600 nM.

Regarding `CNc1ncc2cc(-c3ccc(-c4cccc(C)n4)cc3Cl)c(=O)n(CCCCCN)c2n1`, the EC50 was 2100 nM in test [1]; 2500 nM in [3]; 92 nM in [4]; 61 nM in test [7]; 2500 nM in [8]. Further, the ΔTm in test [2] stood at 5.2 °C; in test [5] it was 9.2 °C; in [6] it was 6.3 °C; in [9], 10.7 °C; in test [10], 7.1 °C.

Take `CNc1ncc2cc(-c3ccc(-c4cccc(C)n4)cc3Cl)c(=O)n(C)c2n1`: the EC50 in test [1] is 4600 nM; in test [3], 12800 nM; in test [4], 775 nM; in test [7] it was 3200 nM; in test [8], 7600 nM. Also, the ΔTm in [2] is 1.6 °C; in test [5], 3.7 °C; in [6] it was 3.2 °C; in test [9] it was 1.3 °C; in test [10], 1.6 °C.

In the case of `CNc1ncc2cc(-c3ccc(-c4cccc(C)n4)cc3Cl)c(=O)n(CCN)c2n1`, the EC50 in [1] was 14800 nM; in test [3], more than 50000 nM; in [4], 1200 nM; in test [7] it was 1400 nM; in [8] it was 13700 nM. In addition, the ΔTm in test [2] was 1.6 °C; in test [5] it was 5.5 °C; in test [6], 1.3 °C; in test [9] it was 1.6 °C; in test [10], 3.3 °C.

On to `CNc1ncc2cc(-c3ccc(-c4cccc(C)n4)cc3Cl)c(=O)n(CCO)c2n1`, for which the half-maximal effective concentration (EC50) was found to be 3600 nM in test [1]; 7700 nM in test [3]; 288 nM in test [4]; 871 nM in [7]; 4400 nM in test [8]. For the same compound, the ΔTm in [2] is 4 °C; in test [6] it was 5 °C; in [9], 9 °C; in test [10], 5.8 °C.

On to `CNc1ncc2cc(-c3ccc(-c4cccc(C)n4)cc3Cl)c(=O)n(CCCN)c2n1`, for which the EC50 in test [1] worked out at 4300 nM; in [3], 26300 nM; in test [4], 251 nM; in test [7], 162 nM; in [8] it was 19800 nM. Moreover, the ΔTm stood at 2.8 °C in test [2]; 7.9 °C in [5]; 4 °C in test [6]; 4.4 °C in test [9]; 7.2 °C in test [10].

`CNc1ncc2cc(-c3ccc(-c4cccc(C)n4)cc3Cl)c(=O)n(CCC3CCNCC3)c2n1`: the EC50 in test [1] was determined as 800 nM; in [3], 1600 nM; in test [4], 60 nM; in test [7] it was 78 nM; in test [8], 1800 nM. For the same compound, the ΔTm in test [2] was found to be 6 °C; in [6], 8.6 °C; in [9], 8 °C; in test [10] it was 7.8 °C.

With `CNc1ncc2cc(-c3ccc(-c4cccc(C)n4)cc3Cl)c(=O)n(CCCCO)c2n1`, the EC50 came out at 4000 nM in [1]; 3400 nM in test [3]; 244 nM in test [4]; 138 nM in [7]; 3600 nM in test [8]. Further, the ΔTm in [2] worked out at 3.8 °C; in test [5], 5.7 °C; in [6], 5 °C; in [9], 7.1 °C; in test [10], 5 °C.

(Values after ChEMBL document CHEMBL5528076, “Development of Selective Pyrido[2,3-d]pyrimidin-7(8H)-one-Based Mammalian STE20-Like (MST3/4) Kinase Inhibitors” (J Med Chem, 2024).)
